Measured values reported in patent US20090221653A1, “7-(2-amino-1-hydroxy-ethyl)-4-hydroxybenzothiazol-2(3H)-one-derivatives as beta2 adrenoreceptor agonists” (AstraZeneca AB, priority 2005, published 2009).
Where a name gives a salt, the structure may show the parent alone.

Columns and labels:
[1] = target: T1, recombinant human Dopamine Subtype D2s receptors (Homo sapiens, UniProt P14416); assay: Dopamine D2 selectivity assay, inhibition of [3H]-spiperone binding; conditions: membranes, [3H]-spiperone 0.16 nM; read-out: D2 bind pIC50 (converted)
T1 construct: purchased Perkin Elmer
Method: (§1) Membranes containing recombinant human Dopamine Subtype D2s receptors were obtained from Perkin Elmer. These were diluted in Assay Buffer (50 nm HEPES, 1 mM EDTA, 120 mM NaCl, 0.1% gelatin, pH 7.4) to provide a final concentration of membranes that gave a clear window between maximum and minimum specific binding.
Assays were performed in U-bottomed 96-well polypropylene plates. […] For each assay plate 8 replicates were obtained for [^3H]-spiperone binding in the presence of 30 μL vehicle (10% (v/v) DMSO in Assay Buffer; defining maximum binding) or 30 μL Haloperidol (10 μM final concentration; defining non-specific binding (NSB)). Membranes were then added to achieve a final volume of 300 μL. The plates were incubated for 2 hours at room temperature and then filtered onto PEI coated GF/B filter plates, pre-soaked for 1 hour in Assay Buffer, using a 96-well plate Tomtec cell harvester. Five washes with 250 μL wash buffer (50 mM HEPES, 1 mM EDTA, 120 mM NaCl, pH 7.4) were performed at 4° C. to remove unbound radioactivity. The plates were dried then sealed from underneath using Packard plate sealers and MicroScint-O (50 μL) was added to each well. The plates were sealed (TopSeal A) and filter-bound radioactivity was measured with a scintillation counter (TopCount, Packard BioScience) using a 3-minute counting protocol. Total specific binding (B0) was determined by subtracting the mean NSB from the mean maximum binding. NSB values were also subtracted from values from all other wells.

Adrenergic β2 = target: T2, Adrenergic β2 (Homo sapiens, UniProt P07550); assay: Alternative Adrenergic β2 Mediated cAMP Production in H292 cells (AlphaScreen cAMP detection); format: cell-based; conditions: for EC50: cAMP, test compounds incubated 60 minutes, 300 μM rolipram, read-out: β2 pEC50 (converted); for β2 Int Act: fraction relative to the maximum activity determined for formoterol, 60 minutes incubation
T2 construct: endogenous in cells; host or cells: H292 cells
Method: H292 cells were grown in 225 cm2 flasks incubator at 37° C., 5% CO2 in RPMI medium containing, 10% (v/v) FBS (foetal bovine serum) and 2 mM L-glutamine.
Adherent H292 cells were removed from tissue culture flasks by treatment with Accutase™ cell detachment solution for 15 minutes. Flasks were incubated for 15 minutes in a humidified incubator at 37° C., 5% CO2. Detached cells were re-suspended in RPMI media (containing 10% (v/v) FBS and 2 mM L-glutamine) at 0.05×10^6 cells per mL. 5000 cells in 100 μL were added to each well of a tissue-culture-treated 96-well plate and the cells incubated overnight in a humidified incubator at 37° C., 5% CO2. The culture media was removed and cells were washed twice with 100 μL assay buffer and replaced with 50 μL assay buffer (HBSS solution containing 10 mM HEPES pH7.4 and 5 mM glucose). […] Cells were incubated with rolipram for 10 minutes after which time test compounds were added and the cells were incubated for 60 minutes at room temperature. […] The reaction was stopped by removing supernatants, washing once with 100 μL assay buffer and replacing with 50 μL lysis buffer. The cell monolayer was frozen at −80° C. for 30 minutes (or overnight).
The concentration of cAMP (cyclic adenosine monophosphate) in the cell lysate was determined using AlphaScreen™ methodology. The frozen cell plate was thawed for 20 minutes on a plate shaker then 10 μL of the cell lysate was transferred to a 96-well white plate. 40 μL of mixed AlphaScreen™ detection beads pre-incubated with biotinylated cAMP, was added to each well and the plate incubated at room temperature for 10 hours in the dark. The AlphaScreen™ signal was measured using an EnVision spectrophotometer (Perkin-Elmer Inc.) with the recommended manufacturer's settings. cAMP concentrations were determined by reference to a calibration curve determined in the same experiment using standard cAMP concentrations. Concentration response curves for agonists were constructed and data was fitted to a four parameter logistic equation to determine both the pEC50 and Intrinsic Activity.

[2] = target: T3, recombinant human α1D receptor (Homo sapiens, UniProt P25100); assay: Adrenergic α1D selectivity assay, inhibition of [3H]-prazosin binding; conditions: HEK293 membranes, [3H]-prazosin 0.3 nM; read-out: α1 bind pIC50 (converted)
T3 construct: expressed in transfected cells; host or cells: HEK293
T3 sequence (P25100 1-572): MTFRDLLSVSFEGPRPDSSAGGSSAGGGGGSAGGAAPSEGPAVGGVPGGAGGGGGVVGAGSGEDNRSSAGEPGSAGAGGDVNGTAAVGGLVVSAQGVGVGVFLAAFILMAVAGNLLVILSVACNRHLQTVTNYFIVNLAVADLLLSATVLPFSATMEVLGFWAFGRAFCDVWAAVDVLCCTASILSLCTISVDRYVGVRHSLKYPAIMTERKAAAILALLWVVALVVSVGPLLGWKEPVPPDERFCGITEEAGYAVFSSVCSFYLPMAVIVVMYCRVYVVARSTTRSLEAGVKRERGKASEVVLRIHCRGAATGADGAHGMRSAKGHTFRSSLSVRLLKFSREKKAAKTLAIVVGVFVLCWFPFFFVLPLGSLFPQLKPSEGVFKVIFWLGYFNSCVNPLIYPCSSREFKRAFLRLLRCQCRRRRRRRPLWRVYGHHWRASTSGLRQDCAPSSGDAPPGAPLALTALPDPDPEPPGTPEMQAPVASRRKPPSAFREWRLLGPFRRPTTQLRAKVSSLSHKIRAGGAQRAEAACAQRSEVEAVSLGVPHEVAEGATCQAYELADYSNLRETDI
Method: Membranes were prepared from human embryonic kidney 293 (HEK293) cells expressing recombinant human α1D receptor. These were diluted in Assay Buffer (50 mM HEPES, 1 mM EDTA, 0.1% gelatin, pH 7.4) to provide a final concentration of membranes that gave a clear window between maximum and minimum specific binding.
(§2) Assays were performed in U-bottomed 96-well polypropylene plates. 10 μL [^3H]-prazosin (0.3 nM final concentration) and 10 μL of test compound (10× final concentration) were added to each test well. For each assay plate 8 replicates were obtained for [^3H]-prazosin binding in the presence of 10 μL vehicle (10% (v/v) DMSO in Assay Buffer; defining maximum binding) or 10 μL BMY7378 (10 μM final concentration; defining non-specific binding (NSB)). Membranes were then added to achieve a final volume of 100 μL. The plates were incubated for 2 hours at room temperature and then filtered onto PEI coated GF/B filter plates, pre-soaked for 1 hour in Assay Buffer, using a 96-well plate Tomtec cell harvester. Five washes with 250 μL wash buffer (50 mM HEPES, 1 mM EDTA, pH 7.4) were performed at 4° C. to remove unbound radioactivity. The plates were dried then sealed from underneath using Packard plate sealers and MicroScint-O (50 μL) was added to each well. The plates were sealed (TopSeal A) and filter-bound radioactivity was measured with a scintillation counter (TopCount, Packard BioScience) using a 3-minute counting protocol.
(§3) Total specific binding (B0) was determined by subtracting the mean NSB from the mean maximum binding. NSB values were also subtracted from values from all other wells.

[3] = target: T4, recombinant human adrenergic beta 1 receptors (Homo sapiens, UniProt P08588); assay: Adrenergic β1 selectivity assay, inhibition of [125I]-Iodocyanopindolol binding; conditions: membranes, [125I]-Iodocyanopindolol; read-out: β1 bind pIC50 (converted)
T4 construct: purchased Euroscreen
Method: as §1, with “adrenergic beta 1” for “Dopamine Subtype D2s”, “Euroscreen.” for “Perkin Elmer.”, “mM” for “nm”
as §2, with “10 μL [^3H]-prazosin (0.3 nM final concentration) and 10 μL of test compound (10× final concentration) were added to each test well. For each assay plate 8 replicates were obtained for [^3H]-prazosin binding in the presence of 10 μL vehicle (10% (v/v) DMSO in Assay Buffer; defining maximum binding) or 10 μL BMY7378 (10 μM final concentration; defining non-specific binding (NSB)).” left out, “EDTA, 120 mM NaCl,” for “EDTA,”
as §3

T4 sequence (P08588 whole entry): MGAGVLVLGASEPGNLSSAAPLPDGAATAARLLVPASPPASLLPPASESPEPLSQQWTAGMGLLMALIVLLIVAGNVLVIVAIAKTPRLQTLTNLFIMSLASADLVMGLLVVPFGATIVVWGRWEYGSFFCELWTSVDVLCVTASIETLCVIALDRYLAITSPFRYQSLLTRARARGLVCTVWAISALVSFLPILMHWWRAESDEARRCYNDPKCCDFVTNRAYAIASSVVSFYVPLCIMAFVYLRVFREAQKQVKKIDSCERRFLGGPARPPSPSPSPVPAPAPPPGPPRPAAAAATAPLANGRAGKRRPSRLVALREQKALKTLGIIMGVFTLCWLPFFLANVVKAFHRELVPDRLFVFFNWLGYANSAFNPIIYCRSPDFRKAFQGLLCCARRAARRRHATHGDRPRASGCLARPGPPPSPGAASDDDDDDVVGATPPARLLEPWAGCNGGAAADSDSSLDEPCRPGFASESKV
T2 sequence (P07550 whole entry): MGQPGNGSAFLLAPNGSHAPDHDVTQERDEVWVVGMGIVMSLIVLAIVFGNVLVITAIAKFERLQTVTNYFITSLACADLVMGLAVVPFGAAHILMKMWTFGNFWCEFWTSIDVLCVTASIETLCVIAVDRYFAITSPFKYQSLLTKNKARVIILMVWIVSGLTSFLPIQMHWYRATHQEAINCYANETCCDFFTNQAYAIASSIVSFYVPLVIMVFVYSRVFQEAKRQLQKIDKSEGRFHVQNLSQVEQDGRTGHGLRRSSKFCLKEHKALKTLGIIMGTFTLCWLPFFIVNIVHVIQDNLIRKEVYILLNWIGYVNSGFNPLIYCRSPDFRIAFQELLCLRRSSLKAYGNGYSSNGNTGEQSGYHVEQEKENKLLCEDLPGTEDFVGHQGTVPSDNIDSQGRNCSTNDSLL
T1 sequence (P14416 1-414 isoform P14416-2): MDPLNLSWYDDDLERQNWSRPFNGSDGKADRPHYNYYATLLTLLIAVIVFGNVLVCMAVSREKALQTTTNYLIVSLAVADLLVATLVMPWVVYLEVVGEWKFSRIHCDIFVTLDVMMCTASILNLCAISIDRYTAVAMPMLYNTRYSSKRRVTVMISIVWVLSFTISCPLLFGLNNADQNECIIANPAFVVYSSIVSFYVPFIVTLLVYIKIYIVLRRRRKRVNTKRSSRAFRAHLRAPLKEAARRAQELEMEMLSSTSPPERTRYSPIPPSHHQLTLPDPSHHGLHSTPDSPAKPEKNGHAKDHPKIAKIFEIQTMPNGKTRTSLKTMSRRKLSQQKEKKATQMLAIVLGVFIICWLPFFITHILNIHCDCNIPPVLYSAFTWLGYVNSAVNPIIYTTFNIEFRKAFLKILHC

SMILES	IC50 [1]	EC50 (Adrenergic β2)	β2 Int Act (Adrenergic β2)	IC50 [2]	IC50 [3]
O=c1[nH]c2c(O)ccc([C@@H](O)CNCCCSCCOCCc3cccc4ccccc34)c2s1 [Example 1, 4-Hydroxy-7-((1R)-1-hydroxy-2-{[3-({2-[2-(1-naphthyl)ethoxy]ethyl}thio)propyl]-amino}ethyl)-1,3-benzothiazol-2(3H)-one trifluoroacetate]	200 nM	0.1 nM	1		
Cl.O=c1[nH]c2c(O)ccc([C@@H](O)CNCCSCCCNCCc3ccccc3)c2s1 [Example 11, 4-Hydroxy-7-((1R)-1-hydroxy-2-{[2-({3-[(2-phenylethyl)amino]propyl}thio)ethyl]amino}ethyl)-1,3-benzothiazol-2(3H)-one hydrochloride]			0.9	126 nM	251 nM
O=c1[nH]c2c(O)ccc([C@@H](O)CNCCSCCCNCCc3cccc(C(F)(F)F)c3)c2s1 [Example 18, 4-Hydroxy-7-{(1R)-1-hydroxy-2-[(2-{[3-({2-[3-(trifluoromethyl)phenyl]ethyl}amino)propyl]thio}ethyl)amino]ethyl}-1,3-benzothiazol-2(3H)-one]		3.16 nM	0.8	251 nM	100 nM
O=c1[nH]c2c(O)ccc([C@@H](O)CNCCCOCCOCCc3ccccc3)c2s1 [Example 3, 4-Hydroxy-7-[(1R)-1-hydroxy-2-({3-[2-(2-phenylethoxy)ethoxy]propyl}amino)ethyl]-1,3-benzothiazol-2(3H)-one trifluoroacetate]		0.126 nM	0.9		
CCc1ccc(CCNCCCSCCNC[C@H](O)c2ccc(O)c3[nH]c(=O)sc23)cc1 [Example 14, 7-[(1R)-2-({2-[(3-{[2-(4-Ethylphenyl)ethyl]amino}propyl)thio]ethyl}amino)-1-hydroxyethyl]-4-hydroxy-1,3-benzothiazol-2(3H)-one]		3.98 nM	0.9	100 nM	50.1 nM
O=c1[nH]c2c(O)ccc([C@@H](O)CNCCCOCCOCCc3cccc4ccccc34)c2s1 [Example 7, 4-Hydroxy-7-{(1R)-1-hydroxy-2-[(3-{2-[2-(1-naphthyl)ethoxy]ethoxy}propyl)amino]ethyl}-1,3-benzothiazol-2(3H)-one]			1.1	631 nM	
Cl.O=c1[nH]c2c(O)ccc([C@@H](O)CNCCCSCCCOCCc3ccccc3)c2s1 [Example 6, 4-Hydroxy-7-{(1R)-1-hydroxy-2-[(3-{[3-(2-phenylethoxy)propyl]thio}propyl)amino]ethyl}-1,3-benzothiazol-2(3H)-one hydrochloride]			0.9		3.98 nM
Cl.O=c1[nH]c2c(O)ccc([C@@H](O)CNCCCSCCOCCc3ccccc3)c2s1 [Example 9, 4-Hydroxy-7-{(1R)-1-hydroxy-2-[(3-{[2-(2-phenylethoxy)ethyl]thio}-propyl)amino]ethyl}-1,3-benzothiazol-2(3H)-one hydrochloride]			1		
O=c1[nH]c2c(O)ccc([C@@H](O)CNCCSCCCNCCc3ccccc3Cl)c2s1 [Example 20, 7-[(1R)-2-({2-[(3-{[2-(2-Chlorophenyl)ethyl]amino}propyl)thio]ethyl}amino)-1-hydroxyethyl]-4-hydroxy-1,3-benzothiazol-2(3H)-one]			0.8	25.1 nM	
CCOc1ccc(CCNCCCSCCNC[C@H](O)c2ccc(O)c3[nH]c(=O)sc23)cc1 [Example 16, 7-[(1R)-2-({2-[(3-{[2-(4-Ethoxyphenyl)ethyl]amino}propyl)thio]ethyl}amino)-1-hydroxyethyl]-4-hydroxy-1,3-benzothiazol-2(3H)-one]			0.7	1580 nM	
O=c1[nH]c2c(O)ccc([C@@H](O)CNCCOCCCNCCc3cccc(Cl)c3)c2s1 [Example 36, 7-((1R)-2-{[2-(3-{[2-(3-Chlorophenyl)ethyl]amino}propoxy)ethyl]amino}-1-hydroxyethyl)-4-hydroxy-1,3-benzothiazol-2(3H)-one]			1		100 nM
O=c1[nH]c2c(O)ccc([C@@H](O)CNCCSCCCNCCc3cccc(Cl)c3)c2s1 [Example 40, 7-[(1R)-2-({2-[(3-{[2-(3-Chlorophenyl)ethyl]amino}propyl)thio]ethyl}amino)-1-hydroxyethyl]-4-hydroxy-1,3-benzothiazol-2(3H)-one dihydrochloride]		1 nM	0.8		
